ChEMBL document CHEMBL3351364 (J Med Chem, 2014)

What was measured:
[1] = Solubility of the compound in water at pH 4; assay type: physicochemical
[2] = Solubility of the compound in water at pH 7.4; assay type: physicochemical
[3] = Solubility of the compound in alcohol; assay type: physicochemical
[4] = Solubility of the compound in dimethyl sulfoxide; assay type: physicochemical
West Nile virus = assay: Antiviral activity against West Nile virus NY99 infected in african green monkey Vero-76 cells after 3 days; assay type: functional, organism-based; details: NY99, Vero 76, 72 h
[5] = Cytotoxicity against West Nile virus NY99 infected african green monkey Vero 76 cells after 3 days; assay type: cell-based; details: chlorocebus sabaeus, Vero 76 cells infected with West Nile virus NY99
Yellow fever virus = assay: Antiviral activity against Yellow fever virus infected in african green monkey Vero-76 cells after 3 days; assay type: functional, organism-based; details: Vero 76, 72 h
[6] = Cytotoxicity against Yellow fever virus infected african green monkey Vero 76 cells after 3 days; assay type: cell-based; details: chlorocebus sabaeus, Vero 76 cells infected with Yellow fever virus
Hepatitis C virus [7] = assay: Antiviral activity against HCV genotype 4a; assay type: functional, Hepacivirus hominis
Dengue virus = assay: Antiviral activity against Dengue virus infected in african green monkey Vero-76 cells after 3 days; assay type: functional, organism-based; details: Vero 76, 72 h
[8] = Cytotoxicity against Dengue virus infected african green monkey Vero 76 cells after 3 days; assay type: cell-based; details: chlorocebus sabaeus, Vero 76 cells infected with Dengue virus
Hepatitis C virus [9] = assay: Antiviral activity against HCV genotype 2a; assay type: functional, Hepacivirus hominis
Hepatitis C virus [10] = assay: Antiviral activity against HCV genotype 1a; assay type: functional, Hepacivirus hominis; details: subtype 1a
[11] = Half life in Sprague-Dawley rat at 11.2 mg/kg, po; assay type: ADME, organism-based; set-up: dose 11.2 mg/kg, route oral; details: in vivo
[12] = Oral bioavailability in Sprague-Dawley rat at 11.2 mg/kg; assay type: ADME, organism-based; details: in vivo
[13] = Half life in Sprague-Dawley rat at 2.8 mg/kg, iv as 30 mins infusion; assay type: ADME, organism-based; set-up: dose 2.8 mg/kg, route intravenous; details: in vivo
[14] = Half life in beagle dog at 10 mg/kg, po; assay type: ADME, organism-based, Canis lupus familiaris; set-up: dose 10 mg/kg, route oral; details: in vivo
[15] = Half life in beagle dog at 5 mg/kg, iv as 30 mins infusion; assay type: ADME, organism-based, Canis lupus familiaris; set-up: dose 5 mg/kg, route intravenous; details: in vivo
[16] = Oral bioavailability in beagle dog at 10 mg/kg; assay type: ADME, organism-based, Canis lupus familiaris; details: in vivo
Cytochrome P450 1A2 = molecular target: T1, Cytochrome P450 1A2 (Homo sapiens, UniProt P05177); assay: Inhibition of human liver CYP1A2; assay type: ADME
T1 sequence (P05177 whole entry): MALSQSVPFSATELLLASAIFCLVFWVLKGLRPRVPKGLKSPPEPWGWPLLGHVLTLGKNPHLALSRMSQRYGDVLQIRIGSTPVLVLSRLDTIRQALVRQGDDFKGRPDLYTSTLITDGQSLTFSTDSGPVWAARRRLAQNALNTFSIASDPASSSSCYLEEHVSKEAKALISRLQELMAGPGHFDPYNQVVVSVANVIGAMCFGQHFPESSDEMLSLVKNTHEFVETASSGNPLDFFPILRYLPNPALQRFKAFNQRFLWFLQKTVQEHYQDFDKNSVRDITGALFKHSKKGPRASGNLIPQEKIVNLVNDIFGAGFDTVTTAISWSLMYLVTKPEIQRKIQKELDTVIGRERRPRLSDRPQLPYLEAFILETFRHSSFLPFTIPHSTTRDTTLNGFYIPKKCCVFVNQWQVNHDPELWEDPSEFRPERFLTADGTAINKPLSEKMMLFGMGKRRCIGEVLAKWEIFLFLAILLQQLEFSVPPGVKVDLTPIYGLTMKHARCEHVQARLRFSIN

Cytochrome P450 2C9 = Cytochrome P450 2C9 (Homo sapiens, UniProt P11712); assay: Inhibition of human liver CYP2C9; assay type: ADME
Cytochrome P450 2C9, sequence (P11712 whole entry): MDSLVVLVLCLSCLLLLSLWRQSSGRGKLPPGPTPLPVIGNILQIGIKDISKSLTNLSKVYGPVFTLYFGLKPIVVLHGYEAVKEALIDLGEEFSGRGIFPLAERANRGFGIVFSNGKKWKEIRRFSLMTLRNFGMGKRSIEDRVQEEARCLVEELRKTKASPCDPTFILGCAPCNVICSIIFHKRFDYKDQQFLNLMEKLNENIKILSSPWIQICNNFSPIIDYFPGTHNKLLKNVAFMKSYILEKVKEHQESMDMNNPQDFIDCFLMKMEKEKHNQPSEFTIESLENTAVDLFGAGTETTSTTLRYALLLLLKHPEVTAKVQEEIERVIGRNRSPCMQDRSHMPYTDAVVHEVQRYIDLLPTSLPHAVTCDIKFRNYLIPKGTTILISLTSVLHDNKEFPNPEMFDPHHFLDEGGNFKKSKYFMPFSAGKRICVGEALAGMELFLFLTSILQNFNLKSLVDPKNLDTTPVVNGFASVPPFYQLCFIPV

Cytochrome P450 2C19 = Cytochrome P450 2C19 (Homo sapiens, UniProt P33261); assay: Inhibition of human liver CYP2C19; assay type: ADME
Cytochrome P450 2C19, sequence (P33261 whole entry): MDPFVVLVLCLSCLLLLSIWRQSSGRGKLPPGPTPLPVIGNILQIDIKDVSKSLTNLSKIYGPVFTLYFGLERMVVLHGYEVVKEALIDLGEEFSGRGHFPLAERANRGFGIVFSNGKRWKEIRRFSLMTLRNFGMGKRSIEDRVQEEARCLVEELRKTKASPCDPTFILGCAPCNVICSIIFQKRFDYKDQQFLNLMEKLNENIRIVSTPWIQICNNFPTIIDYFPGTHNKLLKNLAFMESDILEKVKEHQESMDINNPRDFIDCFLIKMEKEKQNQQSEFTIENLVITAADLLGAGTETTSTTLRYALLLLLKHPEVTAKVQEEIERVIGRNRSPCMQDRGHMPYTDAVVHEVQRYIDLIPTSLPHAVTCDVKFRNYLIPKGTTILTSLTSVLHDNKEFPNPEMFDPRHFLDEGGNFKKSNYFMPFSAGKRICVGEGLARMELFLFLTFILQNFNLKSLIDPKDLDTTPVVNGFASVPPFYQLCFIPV

Cytochrome P450 2D6 = Cytochrome P450 2D6 (Homo sapiens, UniProt P10635); assay: Inhibition of human liver CYP2D6; assay type: ADME
Cytochrome P450 2D6, sequence (P10635 whole entry): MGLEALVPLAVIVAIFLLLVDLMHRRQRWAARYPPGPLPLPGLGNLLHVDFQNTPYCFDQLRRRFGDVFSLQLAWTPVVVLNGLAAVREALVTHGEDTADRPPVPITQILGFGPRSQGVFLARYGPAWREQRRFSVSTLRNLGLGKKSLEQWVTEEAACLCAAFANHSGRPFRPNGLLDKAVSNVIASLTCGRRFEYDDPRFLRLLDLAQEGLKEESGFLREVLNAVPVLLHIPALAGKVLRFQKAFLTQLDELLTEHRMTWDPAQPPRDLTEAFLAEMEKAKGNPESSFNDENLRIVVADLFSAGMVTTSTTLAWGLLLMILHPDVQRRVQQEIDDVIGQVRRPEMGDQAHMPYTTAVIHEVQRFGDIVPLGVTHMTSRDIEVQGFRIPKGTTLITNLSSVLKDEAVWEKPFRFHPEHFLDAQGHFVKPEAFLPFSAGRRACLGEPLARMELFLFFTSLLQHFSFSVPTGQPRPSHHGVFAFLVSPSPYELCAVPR

Cytochrome P450 3A4 = Cytochrome P450 3A4 (Homo sapiens, UniProt P08684); assay: Inhibition of human liver CYP3A4; assay type: ADME
Cytochrome P450 3A4, sequence (P08684 whole entry): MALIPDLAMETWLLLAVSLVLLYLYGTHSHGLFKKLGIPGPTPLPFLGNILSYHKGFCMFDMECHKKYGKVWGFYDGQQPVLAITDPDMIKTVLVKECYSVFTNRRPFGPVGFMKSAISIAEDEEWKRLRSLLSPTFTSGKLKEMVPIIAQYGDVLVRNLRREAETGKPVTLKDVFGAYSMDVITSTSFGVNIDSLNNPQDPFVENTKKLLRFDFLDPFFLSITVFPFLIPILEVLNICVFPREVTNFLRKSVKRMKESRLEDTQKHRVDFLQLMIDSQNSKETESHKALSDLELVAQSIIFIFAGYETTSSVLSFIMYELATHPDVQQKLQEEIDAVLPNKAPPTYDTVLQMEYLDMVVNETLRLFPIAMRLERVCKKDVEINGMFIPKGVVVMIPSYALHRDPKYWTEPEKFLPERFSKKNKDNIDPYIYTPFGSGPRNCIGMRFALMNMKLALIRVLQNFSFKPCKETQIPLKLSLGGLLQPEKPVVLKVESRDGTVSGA

[17] = Metabolic stability in rat liver microsomes assessed as residual compound at 1 uM after 60 mins; assay type: ADME; details: read-out: Stability
[18] = Metabolic stability in dog liver microsomes assessed as residual compound at 1 uM after 60 mins; assay type: ADME, Canis lupus familiaris; details: read-out: Stability
[19] = Metabolic stability in human liver microsomes assessed as residual compound at 1 uM after 60 mins; assay type: ADME; details: read-out: Stability
[20] = molecular target: Voltage-gated inwardly rectifying potassium channel KCNH2 (Homo sapiens, UniProt Q12809); assay: Binding affinity to human ERG at 3 to 30 uM
Voltage-gated inwardly rectifying potassium channel KCNH2, sequence (Q12809 whole entry): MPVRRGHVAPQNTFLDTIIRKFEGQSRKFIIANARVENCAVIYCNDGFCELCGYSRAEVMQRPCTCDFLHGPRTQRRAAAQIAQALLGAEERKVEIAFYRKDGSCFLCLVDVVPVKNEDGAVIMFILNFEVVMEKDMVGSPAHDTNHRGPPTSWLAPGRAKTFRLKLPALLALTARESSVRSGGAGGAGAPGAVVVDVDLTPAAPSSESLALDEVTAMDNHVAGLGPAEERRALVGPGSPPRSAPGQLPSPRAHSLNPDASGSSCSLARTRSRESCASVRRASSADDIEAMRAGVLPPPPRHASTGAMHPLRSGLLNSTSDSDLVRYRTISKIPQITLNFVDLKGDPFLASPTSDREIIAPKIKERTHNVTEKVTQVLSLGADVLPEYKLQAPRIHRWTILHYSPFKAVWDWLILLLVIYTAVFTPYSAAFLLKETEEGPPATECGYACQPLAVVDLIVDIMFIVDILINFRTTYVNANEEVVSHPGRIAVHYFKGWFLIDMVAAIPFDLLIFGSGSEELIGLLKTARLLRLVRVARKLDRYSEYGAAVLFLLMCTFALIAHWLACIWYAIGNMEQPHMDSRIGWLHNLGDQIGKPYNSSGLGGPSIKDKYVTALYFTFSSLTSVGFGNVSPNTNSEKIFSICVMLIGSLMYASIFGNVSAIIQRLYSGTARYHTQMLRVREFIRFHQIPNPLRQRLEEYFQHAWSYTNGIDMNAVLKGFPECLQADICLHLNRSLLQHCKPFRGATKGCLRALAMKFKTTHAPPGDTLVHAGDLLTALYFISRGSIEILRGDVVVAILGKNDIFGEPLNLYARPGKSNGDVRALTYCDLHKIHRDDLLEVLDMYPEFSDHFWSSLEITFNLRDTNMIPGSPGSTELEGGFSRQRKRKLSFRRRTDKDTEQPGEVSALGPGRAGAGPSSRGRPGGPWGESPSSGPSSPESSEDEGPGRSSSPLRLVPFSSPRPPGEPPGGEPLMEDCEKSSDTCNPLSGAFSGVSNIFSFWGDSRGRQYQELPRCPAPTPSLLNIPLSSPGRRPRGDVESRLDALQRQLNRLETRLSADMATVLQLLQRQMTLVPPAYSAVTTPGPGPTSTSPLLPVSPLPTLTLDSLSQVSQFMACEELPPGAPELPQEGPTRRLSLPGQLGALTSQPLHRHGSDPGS

[21] = Toxicity in ip dosed SHK mouse; assay type: organism-based; details: in vivo
[22] = (§1) Toxicity in po dosed male SHK mouse; assay type: organism-based; details: male, SHK, in vivo
Mus musculus [23] = assay: as §1; assay type: organism-based; details: in vivo
[24] = (§2) Toxicity in po dosed female SHK mouse; assay type: organism-based; details: female, SHK, in vivo
Mus musculus [25] = assay: as §2; assay type: organism-based; details: in vivo
[26] = (§3) Toxicity in ip dosed male Wistar rat; assay type: organism-based; details: male, Wistar, in vivo
Rattus norvegicus [27] = assay: as §3; assay type: organism-based; details: in vivo
[28] = (§4) Toxicity in ip dosed female Wistar rat; assay type: organism-based; details: female, Wistar, in vivo
Rattus norvegicus [29] = assay: as §4; assay type: organism-based; details: in vivo
[30] = (§5) Toxicity in ip dosed Wistar rat; assay type: organism-based; details: Wistar, in vivo
Rattus norvegicus [31] = assay: as §5; assay type: organism-based; details: in vivo
Canis familiaris = species on record: Canis familiaris; assay: Toxicity in dog by 6-weeks study; assay type: organism-based, Canis lupus familiaris; details: in vivo, 1008 h
Rattus norvegicus [32] = species on record: Rattus norvegicus; assay: Toxicity in rat by 12-weeks study; assay type: organism-based; details: in vivo, 2016 h
Rattus norvegicus [33] = species on record: Rattus norvegicus; assay: Toxicity in male rat assessed as adverse effect on reproductive organ; assay type: organism-based; details: in vivo
Rattus norvegicus [34] = species on record: Rattus norvegicus; assay: Toxicity in female rat assessed as adverse effect on reproductive organ; assay type: organism-based; details: in vivo
Salmonella typhimurium [35] = assay: Mutagenicity in Salmonella typhimurium TA98 assessed as increase in number of colonies by Ames test relative to control; assay type: toxicity, organism-based; details: salmonella enterica subsp. enterica serovar typhimurium
Salmonella typhimurium [36] = assay: Mutagenicity in Salmonella typhimurium TA100 assessed as increase in number of colonies by Ames test relative to control; assay type: toxicity, organism-based; details: salmonella enterica subsp. enterica serovar typhimurium
Salmonella typhimurium [37] = assay: Mutagenicity in Salmonella typhimurium TA1535 assessed as increase in number of colonies by Ames test relative to control; assay type: toxicity, organism-based; details: salmonella enterica subsp. enterica serovar typhimurium
Salmonella typhimurium [38] = assay: Mutagenicity in Salmonella typhimurium TA1537 assessed as increase in number of colonies by Ames test relative to control; assay type: toxicity, organism-based; details: salmonella enterica subsp. enterica serovar typhimurium
[39] = Lipophilicity, log P of the compound; assay type: physicochemical; details: octanol/water
[40] = Lipophilicity, log D of the compound at pH 7.4; assay type: physicochemical; details: buffer
Hepatitis C virus [41] = assay: Antiviral activity against HCV genotype 1b infected in human Huh7 cells after 3 days by cell-based replicon assay in presence of 10% fetal bovine serum; assay type: functional, Hepacivirus hominis; details: Huh-7, 72 h
Hepatitis C virus [42] = assay: Antiviral activity against HCV genotype 1b infected in human Huh7 cells after 3 days by cell-based replicon assay in presence of 40% normal human serum; assay type: functional, Hepacivirus hominis; details: Huh-7, 72 h
[43] = Cytotoxicity against human HuH7 cells; assay type: cell-based, Huh-7
[44] = Therapeutic index, ratio of CC50 for human Huh7 cells to EC50 for HCV genotype 1b infected in human Huh7 cells; assay type: cell-based, Huh-7; details: read-out: Ratio CC50/EC50
[45] = Solubility of the compound in water at pH 2; assay type: physicochemical
[46] = Cmax in Sprague-Dawley rat at 3 mg/kg, po; assay type: ADME, organism-based; set-up: dose 3 mg/kg, route oral; details: in vivo
[47] = Half life in Sprague-Dawley rat at 3 mg/kg, po; assay type: ADME, organism-based; set-up: dose 3 mg/kg, route oral; details: in vivo
[48] = Oral bioavailability in Sprague-Dawley rat at 1 mg/kg; assay type: ADME, organism-based; details: in vivo
[49] = Cmax in beagle dog at 2.5 mg/kg, po; assay type: ADME, organism-based, Canis lupus familiaris; set-up: dose 2.5 mg/kg, route oral; details: in vivo
[50] = Half life in beagle dog at 2.5 mg/kg, po; assay type: ADME, organism-based, Canis lupus familiaris; set-up: dose 2.5 mg/kg, route oral; details: in vivo
[51] = Oral bioavailability in beagle dog at 2.5 mg/kg; assay type: ADME, organism-based, Canis lupus familiaris; details: in vivo
[52] = Cmax in monkey at 2.5 mg/kg, po; assay type: ADME, organism-based, Macaca mulatta; set-up: dose 2.5 mg/kg, route oral; details: rhesus monkey, in vivo
[53] = Half life in monkey at 2.5 mg/kg, po; assay type: ADME, organism-based, Macaca mulatta; set-up: dose 2.5 mg/kg, route oral; details: rhesus monkey, in vivo
[54] = Oral bioavailability in monkey at 2.5 mg/kg; assay type: ADME, organism-based, Macaca mulatta; details: rhesus monkey, in vivo
Hepatitis C virus [55] = assay: Antiviral activity against HCV genotype 1b infected in human Huh7 cells after 3 days by cell-based replicon assay; assay type: functional, Hepacivirus hominis; details: Huh-7, 72 h

COC(=O)N[C@H](C(=O)N1CCCC1c1ncc(C#CC#Cc2ccc(-c3cnc(C4CCCN4C(=O)[C@@H](NC(=O)OC)C(C)C)[nH]3)cc2)[nH]1)C(C)C.Cl (single isomer, unassigned; 13a)
solubility [1]: 2200 µM
solubility [2]: 433 µM
solubility [3]: ≥ 10 µM
solubility [4]: ≥ 10 µM
EC50 (West Nile virus): > 26.3 µM
CC50 at 72 h [5]: 26.3 µM
EC50 (Yellow fever virus): > 23.5 µM
CC50 at 72 h [6]: 23.5 µM
EC50 (Hepatitis C virus [7]): 6.5 pM
EC50 (Dengue virus): > 28.4 µM
CC50 at 72 h [8]: 28.4 µM
EC50 (Hepatitis C virus [9]): 51 pM
EC50 (Hepatitis C virus [10]): 59 pM
half-life [11]: 3 h
bioavailability [12]: 65%
half-life [13]: 3.4 h
half-life [14]: 4.5 h
half-life [15]: 4.9 h
bioavailability [16]: 58%
IC50 (Cytochrome P450 1A2): > 10 µM
IC50 (Cytochrome P450 2C9): > 10 µM
IC50 (Cytochrome P450 2C19): > 10 µM
IC50 (Cytochrome P450 2D6): > 10 µM
IC50 (Cytochrome P450 3A4): > 10 µM
remaining at 1 h, 1 µM [17]: 70.8%
remaining at 1 h, 1 µM [18]: 84.7%
remaining at 1 h, 1 µM [19]: 81.5%
Activity [20]: < 10%
LD50 [21]: > 1600 mg/kg
LD50 [22]: 3440 mg/kg
LD10 (Mus musculus [23]): 2320.3 mg/kg
LD16 (Mus musculus [23]): 2565.4 mg/kg
LD84 (Mus musculus [23]): 4305.3 mg/kg
LD50 [24]: 3010 mg/kg
LD10 (Mus musculus [25]): 1160.1 mg/kg
LD16 (Mus musculus [25]): 1565.7 mg/kg
LD84 (Mus musculus [25]): 4445.3 mg/kg
LD50 [26]: 349 mg/kg
LD10 (Rattus norvegicus [27]): 228.6 mg/kg
LD50 [28]: 412 mg/kg
LD10 (Rattus norvegicus [29]): 228.4 mg/kg
LD50 [30]: 395 mg/kg
LD10 (Rattus norvegicus [31]): 234.2 mg/kg
Activity (Canis familiaris): Non-toxic
LD84 (Canis familiaris): 485.6 mg/kg
Activity (Rattus norvegicus [32]): Non-toxic
LD84 (Rattus norvegicus [32]): 651.3 mg/kg
Activity (Rattus norvegicus [33]): Non-toxic
LD84 (Rattus norvegicus [33]): 593.2 mg/kg
Activity (Rattus norvegicus [34]): Non-toxic
Activity (Salmonella typhimurium [35]): Non-toxic
Activity (Salmonella typhimurium [36]): Non-toxic
Activity (Salmonella typhimurium [37]): Non-toxic
Activity (Salmonella typhimurium [38]): Non-toxic
logP [39]: 4.99
logD [40]: 4.46
EC50 (Hepatitis C virus [41]): 3.4 pM
EC50 (Hepatitis C virus [42]): 21 pM
CC50 [43]: 17.3 µM
selectivity ratio [44]: > 5000
solubility [45]: 208 µM

COC(=O)N[C@@H](C(=O)N1CCC[C@H]1C(=O)Nc1ccc([C@H]2CC[C@@H](c3ccc(NC(=O)[C@@H]4CCCN4C(=O)[C@H](NC(=O)OC)C(C)C)cc3)N2c2ccc(C(C)(C)C)cc2)cc1)C(C)C
Cmax [46]: 3360 nM
half-life [47]: 15.9 h
bioavailability [48]: 6.2%
Cmax [49]: 720 nM
half-life [50]: 7.3 h
bioavailability [51]: 57%
Cmax [52]: 320 nM
half-life [53]: 5 h
bioavailability [54]: 35%
EC50 (Hepatitis C virus [55]): 5 pM
